The values that follow come from publication PMC12299813, “Combined Metabolomics and Network Pharmacology to Reveal Anti-Diabetic Mechanisms and Potential Pharmacological Components of Synsepalum dulcificum” (Plants, 2025).

Details of assay [1]: method as in doi:10.1016/j.jtice.2010.05.008. Conditions: isolated from the stem of SD; cited from earlier work.
Another assay concerns the target α-glucosidase. The experiment in a line: α-glucosidase inhibition assay (PNPG method). The format is biochemical, yeast. The conditions noted are these: acarbose positive control, three repetitions, read-out: IC50 ± SD of α-glucosidase inhibition, S. dulcificum components. An excerpt: Ultrapure water was obtained using the UP series ultrapure water system (Chengdu, China). […] HPLC-grade formic acid was purchased from Shanghai Aladdin Biochemical Technology Co., Ltd. (Shanghai, China). HPLC-grade methanol and acetonitrile were purchased from Merck (Darmstadt, Germany). Di-methyl sulfoxide (DMSO) was purchased from Tianjin Dama Chemical Reagent Factory (Tianjin, China). Disodium hydrogen phosphate was purchased from Guangdong Guanghua Technology Co., Ltd. (Shantou, China). Other analytical-grade chemicals and reagents, such as sodium chloride and anhydrous ethanol, were obtained from Sichuan Xilong Scientific Co., Ltd. (Chengdu, China).
Soak the crushed stems, leaves, and fruits of S. dulcificum in methanol for 24 h, then extract the chemical components using ethyl acetate. After that, concentrate the extract using a rotary vacuum evaporator, repeating the extraction three times to obtain the crude extracts, which are then prepared at concentrations of 0.5, 1, 8, and 16 mg/mL, respectively, for subsequent inhibition experiments.
The assay was conducted following a previously described method, and made some minor adjustments. Briefly, 0.1 M phosphate-buffered saline (PBS, pH 6.9) was used to prepare standard sample solutions of different concentrations, α-glucosidase (1 U/mL), and p-nitrophenyl-α-D-glucopyranoside (α-PNPG, 5 mM). A mixture of the sample (50 μL) and α-glucosidase (50 μL) was incubated at 37 °C for 10 min, followed by the addition of 50 μL of PNPG and further incubation at 37 °C for 20 min. Finally, 100 μL of Na2CO3 (0.1 M) was added to terminate the reaction after incubating at 37 °C for 10 min. […] The experiment was set up with three repetitions, and the IC50 values were determined.

The subject of assay [2] is type 2 diabetic albino rats. More on the design: method as in PMID 28917550. The conditions noted are these: cited from earlier work.

Take `COc1cc([C@H]2OC[C@H]3[C@@H]2CO[C@H]3c2cc(OC)c(O)c(OC)c2)cc(OC)c1O` [(+)-epi-syringaresinol]: the “DPPH radical scavenging activity compared to positive control vitamin C” value in assay [1] was “superior”.

`COc1cc([C@H]2OC[C@H]3[C@@H]2CO[C@@H]3c2cc(OC)c(O)c(OC)c2)cc(OC)c1O` [(+)-syringaresinol]: the “DPPH radical scavenging activity compared to positive control vitamin C” value in assay [1] was “superior”. Turning to `C=C(C)[C@@H]1CC[C@]2(C(=O)O)CC[C@]3(C)[C@H](CC[C@@H]4[C@@]5(C)CC[C@H](O)C(C)(C)[C@@H]5CC[C@]43C)[C@@H]12` [Betulinic acid], at α-glucosidase, the IC50 (usually the concentration that gives 50% inhibition) amounted to 0.07 ± 0.02 mM. On to `C[C@H]1[C@H](C)CC[C@]2(C(=O)O)CC[C@]3(C)C(=CC[C@@H]4[C@@]5(C)C[C@@H](O)[C@H](O)C(C)(C)[C@@H]5CC[C@]43C)[C@H]12` [Corosolic acid], for which the IC50 at α-glucosidase came out at 2.12 ± 0.44 mM. On to `COC(=O)c1cc(O)c(O)c(O)c1` [Methyl gallate], for which the IC50 on α-glucosidase was found to be 4.18 ± 1.09 mM. For the compound `CC(C)=CCC/C(C)=C/CC/C(C)=C/CC/C=C(\C)CC/C=C(\C)CCC=C(C)C` [Squalene], at α-glucosidase, the IC50 came to 55.1 ± 1.8 mM.

On to `CC[C@H](/C=C/[C@@H](C)[C@H]1CC[C@H]2[C@@H]3CC=C4C[C@@H](O)CC[C@]4(C)[C@H]3CC[C@]12C)C(C)C` [Stigmasterol], for which the IC50 on α-glucosidase turned out to be 2.11 ± 0.24 mM. Same read-out and setting: under `COc1cc(/C=C/CO)cc(OC)c1O[C@@H]1O[C@H](CO)[C@@H](O)[C@H](O)[C@H]1O` [Syringin] stands 5.4 ± 1.2 mM. As for `COc1ccc(Cl)cc1C(=O)NCCc1ccc(S(=O)(=O)NC(=O)NC2CCCCC2)cc1` [glibenclamide], the blood glucose levels entry in assay [2] is “significantly lowered”.
